These are literature values, as cited in paper PMC5306496 (British Journal of Clinical Pharmacology, 2016).

Like-named read-outs stand apart in the source and are kept apart here. Some results are limits rather than exact numbers.

For series [1] the following is noted: CVVHDF.
Test in series [2]: not given
The source holds these as a separate data set.

Test in series [3]: not given
This is another data set of the same source.

Where [4] appears, read: patients with SAB/RIE and CrCl > 30 ml min^−1, 6 mg kg^−1 once daily.

daptomycin: the C max was 24700 to 69700 ng/mL in series [1] (4 mg kg^−1/day, n = 4, range); 34700 to 35700 ng/mL in series [1] (5 mg kg^−1/day, n = 2, range); 20500 to 61700 ng/mL in series [1] (6 mg kg^−1/day, n = 2, range). Also, the C min in series [1] (4 mg kg^−1/day, n = 4, range) is 2700 to 11900 ng/mL; in series [1] (5 mg kg^−1/day, n = 2, range), 3000 to 3700 ng/mL; in series [1] (6 mg kg^−1/day, n = 2, range), 1500 to 15900 ng/mL. For the same substance, the “C min that may be associated with elevated creatine phosphokinase (CPK)” value (additional safety threshold) was above 24300 ng/mL. Further, the “safety threshold C max” value (healthy volunteers with normal renal function, 12 mg kg^−1 Q24 h) is 197000 ng/mL. In addition, the “efficacy exposure reference AUC0–24h” value under setting [4] is 465 to 761 µg·h/mL. In addition, the “efficacy exposure reference C max” value under setting [4] was 66000 to 112000 ng/mL. The “clearance by CRRT as share of the total drug clearance” value in series [2] was 40–50%. In series [2] (once‐daily doses of 6–12 mg kg^−1), the PK linearity result is listed as “linear PK profile”. The “amount of drug cleared by the kidneys” value in series [2] (patients with normal renal function) is listed as 34–54%. Further, the CL in series [3] (base model without CRRT patients, not-on-dialysis) is 11.4 mL/h/kg; in series [3] (base model without CRRT patients, not-on-dialysis, at 70 kg), 0.80 L/h; in series [3] (base model, CAPD) it was 2.98 mL/h/kg; in series [3] (base model, HD), 3.43 mL/h/kg.
